Experimental data reported in patent publication US20240158446A1, “CYCLIC COMPOUND HAVING SELECTIVE INHIBITORY ACTION ON KRAS OVER HRAS AND NRAS” (CHUGAI SEIYAKU KABUSHIKI KAISHA, priority 2021, published 2024).

Experiments:
[1] = biological target: GDP-bound KRAS wild-type protein (Homo sapiens, UniProt P01116); experiment: Binding to KRAS by surface plasmon resonance (SPR), Single Cycle Kinetics; conditions: SPR Single Cycle Kinetics, GDP-bound KRAS wild-type protein, 1:1 binding model; read-out: KRAS KD
Chain of GDP-bound KRAS wild-type protein (P01116 whole entry): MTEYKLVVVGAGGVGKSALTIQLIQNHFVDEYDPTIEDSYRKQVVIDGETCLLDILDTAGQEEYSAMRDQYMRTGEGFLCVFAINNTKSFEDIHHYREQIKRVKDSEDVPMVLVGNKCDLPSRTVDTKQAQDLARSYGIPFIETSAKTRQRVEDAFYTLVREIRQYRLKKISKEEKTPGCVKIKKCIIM

[2] = biological target: GDP-bound NRAS wild-type protein (Homo sapiens, UniProt P01111); experiment: Binding to NRAS by surface plasmon resonance (SPR), Single Cycle Kinetics; conditions: SPR KD ratio NRAS/KRAS, class symbols
Chain of GDP-bound NRAS wild-type protein (P01111 whole entry): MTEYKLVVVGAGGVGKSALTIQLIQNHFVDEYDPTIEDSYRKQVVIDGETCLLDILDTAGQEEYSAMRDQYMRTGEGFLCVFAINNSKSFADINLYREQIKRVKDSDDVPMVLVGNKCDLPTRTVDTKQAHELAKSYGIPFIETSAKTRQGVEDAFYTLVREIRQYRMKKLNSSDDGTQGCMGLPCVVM

[3] = biological target: GDP-bound HRAS wild-type protein (Homo sapiens, UniProt P01112); experiment: Binding to HRAS by surface plasmon resonance (SPR), Single Cycle Kinetics; conditions: SPR KD ratio HRAS/KRAS, class symbols
Chain of GDP-bound HRAS wild-type protein (P01112 whole entry): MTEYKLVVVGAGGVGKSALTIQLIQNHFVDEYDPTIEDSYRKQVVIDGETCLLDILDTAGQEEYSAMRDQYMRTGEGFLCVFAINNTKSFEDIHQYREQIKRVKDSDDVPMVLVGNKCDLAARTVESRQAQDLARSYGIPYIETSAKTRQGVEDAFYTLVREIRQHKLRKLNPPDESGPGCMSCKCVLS

Row | SMILES | Kd [1] [nM] | NRAS/KRAS (ratio of KD value with respect to GDP-bound NRAS wild-type protein to KD value with respect to KRAS) [2] | HRAS/KRAS (ratio of KD value with respect to GDP-bound HRAS wild-type protein to KD value with respect to KRAS) [3]
1 | CCCC[C@H]1C(=O)N[C@@H]([C@@H](C)CC)C(=O)N(C)CC(=O)N(C)[C@H]2C/C=C\CCN(C2=O)[C@@H](Cc2ccc(C(F)(F)F)cc2)C(=O)N(C)CC(=O)N[C@@H](CCc2ccc(C(F)(F)F)c(OC)c2)C(=O)N2C[C@H](OCC)C[C@H]2C(=O)NC2(CCC2)C(=O)N(C)[C@@H](C2CCCC2)C(=O)N(C)[C@H](C(=O)N(C)CC)CC(=O)N1C [PP2840] | 0.1 | A (a compound having 10 or more and less than 20 is denoted as A) | A (a compound having 10 or more and less than 20 is denoted as A)
2 | CCO[C@@H]1C[C@H]2C(=O)NC3(CCC3)C(=O)N(C)[C@@H](C3CCCC3)C(=O)N(C)[C@H](C(=O)N(C)C)CC(=O)N(C)[C@@H](CC3CCCC3)C(=O)N[C@@H]([C@@H](C)CC)C(=O)N(C)CC(=O)N(C)[C@H]3C/C=C\CCN(C3=O)[C@@H](Cc3ccc(C(F)(F)F)cc3)C(=O)N(C)CC(=O)N[C@@H](CCc3ccc(C(F)(F)F)c(Cl)c3)C(=O)N2C1 [PP2842] | 0.08 | A (a compound having 10 or more and less than 20 is denoted as A) | B (a compound having 3 or more and less than 10 is denoted as B)
3 | C#CC[C@H]1C(=O)N[C@@H]([C@@H](C)CC)C(=O)N(C)CC(=O)N(C)[C@H]2C/C=C\CCN(C2=O)[C@@H](Cc2ccc(C(F)(F)F)cc2)C(=O)N(C)CC(=O)N[C@@H](CCc2ccc(Cl)c(Cl)c2)C(=O)N2C[C@H](OCC)C[C@H]2C(=O)NC2(CC(C)(C)C2)C(=O)N(C)[C@@H](C2CCCC2)C(=O)N(C)[C@H](C(=O)N(C)CC)CC(=O)N1C [PP2843] | 0.26 | A (a compound having 10 or more and less than 20 is denoted as A) | A (a compound having 10 or more and less than 20 is denoted as A)
4 | C#CC[C@H]1C(=O)N[C@@H]([C@@H](C)CC)C(=O)N(C)CC(=O)N(C)[C@H]2C/C=C\CCN(C2=O)[C@@H](Cc2ccc(C(F)(F)F)cc2)C(=O)N(C)CC(=O)N[C@@H](CCc2ccc(C(F)(F)F)c(Cl)c2)C(=O)N2C[C@H](OCC)C[C@H]2C(=O)NC2(CC(C)(C)C2)C(=O)N(C)[C@@H](C2CCCC2)C(=O)N(C)[C@H](C(=O)N(C)CC)CC(=O)N1C [PP2844] | 0.12 | A (a compound having 10 or more and less than 20 is denoted as A) | A (a compound having 10 or more and less than 20 is denoted as A)
5 | CCO[C@@H]1C[C@H]2C(=O)NC3(CCC3)C(=O)N(C)[C@@H](C3CCCC3)C(=O)N(C)[C@H](C(=O)N(C)CC)CC(=O)N(C)[C@@H](CC(C)C)C(=O)N[C@@H]([C@@H](C)CC)C(=O)N(C)CC(=O)N(C)[C@H]3C/C=C\CCN(C3=O)[C@@H](Cc3ccc(C(F)(F)F)cc3)C(=O)N(C)CC(=O)N[C@@H](CCc3ccc(C(F)(F)F)c(OC)c3)C(=O)N2C1 [PP2846] | 0.091 | AA (a compound having 20 or more is denoted as AA) | A (a compound having 10 or more and less than 20 is denoted as A)
6 | CCC[C@H]1C(=O)N[C@@H]([C@@H](C)CC)C(=O)N(C)CC(=O)N(C)[C@H]2C/C=C\CCN(C2=O)[C@@H](Cc2ccc(C(F)(F)F)cc2)C(=O)N(C)CC(=O)N[C@@H](CCc2ccc(CC)c(Cl)c2)C(=O)N2C[C@H](OCC)C[C@H]2C(=O)NC2(CC(C)(C)C2)C(=O)N(C)[C@@H](C2CCCC2)C(=O)N(C)[C@H](C(=O)N(C)C)CC(=O)N1C [PP2848] | 0.47 | A (a compound having 10 or more and less than 20 is denoted as A) | A (a compound having 10 or more and less than 20 is denoted as A)
7 | CCC[C@H]1C(=O)N[C@@H]([C@@H](C)CC)C(=O)N(C)CC(=O)N(C)[C@H]2C/C=C\CCN(C2=O)[C@@H](Cc2ccc(C(F)(F)F)cc2)C(=O)N(C)CC(=O)N[C@@H](CCc2cc(F)c3c(c2)CCC3)C(=O)N2C[C@H](OCC)C[C@H]2C(=O)NC2(CC(C)(C)C2)C(=O)N(C)[C@@H](C2CCCC2)C(=O)N(C)[C@H](C(=O)N(C)C)CC(=O)N1C [PP2849] | 0.58 | A (a compound having 10 or more and less than 20 is denoted as A) | A (a compound having 10 or more and less than 20 is denoted as A)
8 | CCC[C@H]1C(=O)N[C@@H]([C@@H](C)CC)C(=O)N(C)CC(=O)N(C)[C@H]2C/C=C\CCN(C2=O)[C@@H](Cc2ccc(C(F)(F)F)cc2)C(=O)N(C)CC(=O)N[C@@H](CCc2cc(Cl)c3sccc3c2)C(=O)N2C[C@H](OCC)C[C@H]2C(=O)NC2(CC(C)(C)C2)C(=O)N(C)[C@@H](C(CC)CC)C(=O)N(C)[C@H](C(=O)N(C)C)CC(=O)N1C [PP2888] | 0.39 | AA (a compound having 20 or more is denoted as AA) | A (a compound having 10 or more and less than 20 is denoted as A)
9 | CCC[C@H]1C(=O)N[C@@H]([C@@H](C)CC)C(=O)N(C)CC(=O)N(C)[C@H]2C/C=C\CCN(C2=O)[C@@H](Cc2ccc(C(F)(F)F)cc2)C(=O)N(C)CC(=O)N[C@@H](CCc2ccc3sc(C)c(C)c3c2)C(=O)N2C[C@H](OCC)C[C@H]2C(=O)NC2(CC(C)(C)C2)C(=O)N(C)[C@@H](C2CCCC2)C(=O)N(C)[C@H](C(=O)N(C)C)CC(=O)N1C [PP2889] | 0.29 | A (a compound having 10 or more and less than 20 is denoted as A) | A (a compound having 10 or more and less than 20 is denoted as A)
10 | CCC[C@H]1C(=O)N[C@@H]([C@@H](C)CC)C(=O)N(C)CC(=O)N(C)[C@H]2C/C=C\CCN(C2=O)[C@@H](Cc2ccc(C)cc2)C(=O)N(C)CC(=O)N[C@@H](CCc2cc(Cl)c3sccc3c2)C(=O)N2C[C@H](OCC)C[C@H]2C(=O)NC2(CC(C)(C)C2)C(=O)N(C)[C@@H](C(CC)CC)C(=O)N(C)[C@H](C(=O)N(C)C)CC(=O)N1C [PP2890] | 0.42 | AA (a compound having 20 or more is denoted as AA) | A (a compound having 10 or more and less than 20 is denoted as A)
